Data on 1 compound can be found in PMC12661054, “The CIP2A-TOPBP1 axis facilitates mitotic DNA repair via MiDAS and MMEJ” (Nature Communications, 2025).

Structures are written as SMILES.

For the assay, the system named is eGFP-SLX4 and MUS81. The assay is described as follows: Chromatin residency of eGFP-SLX4 and MUS81 (chromatin-fraction co-IP). Format: cell-based, human. As to conditions: acute CDK1 inhibition, eGFP-SLX4 Co-IP from mitotic chromatin. How it is done:
Cell pellets stored at −80 °C were thawed on ice, followed by addition of ten volumes to 1 NIB-250 (15 mM Tris-HCL (pH 7.5), 60 mM KCl, 15 mM NaCl, 5 mM MgCl2, 1 mM CaCl2, 250 mM sucrose) containing 1 mM DTT, 1x cOmplete, EDTA-free Protease Inhibitor +0.3% NP. The cells were mixed by pipetting gently and then incubated on ice for 10 min. The cell pellet was then centrifuged at 400–600 x g for 5 min at 4 °C. The supernatant was transferred to a separate tube (cytoplasmic fraction). The nuclei pellet was then resuspended in ten volumes of 10:1 NIB-250 without detergent containing 1 mM DTT and 1x cOmplete, EDTA-free Protease Inhibitor. The nuclei were then pelleted by centrifugation at 400–600 x g for 5 min at 4 °C and the supernatant was discarded. The pellet was then resuspended 7 volumes relative to pellet volume of hypotonic buffer (3 mM EDTA, 0.2 mM EGTA containing 1 mM DTT and 1x cOmplete, EDTA-free Protease Inhibitor) and incubated on ice for 30 min, vortexing every 5 min. The insoluble chromatin fraction was collected by centrifugation for 4 min at 1700 x g. The supernatant, was retained, containing the nucleoplasm fraction. The chromatin pellet was washed with hypotonic buffer containing 1 mM DTT and protease inhibitors and the above centrifugation was repeated. The supernatant was discarded and the pellet retained and used as starting material for immunoprecipitation experiments. […]

As to `O=C1NC(=NCc2cccs2)S/C1=C\c1ccc2ncccc2c1` [CDK1i], the “chromatin residency of eGFP-SLX4 and MUS81” value is “markedly impaired chromatin residency of eGFP-SLX4 and MUS81”.
